Experimental data taken from patent publication US11737985B2 (priority 2013, dated 2023).
Like-named read-outs stand apart in the source and are kept apart here.

Tests used:
[1] = biological target: T1, hNKCC1a (Homo sapiens, UniProt P55011); details: cited from earlier work
T1 sequence (P55011 1-1212): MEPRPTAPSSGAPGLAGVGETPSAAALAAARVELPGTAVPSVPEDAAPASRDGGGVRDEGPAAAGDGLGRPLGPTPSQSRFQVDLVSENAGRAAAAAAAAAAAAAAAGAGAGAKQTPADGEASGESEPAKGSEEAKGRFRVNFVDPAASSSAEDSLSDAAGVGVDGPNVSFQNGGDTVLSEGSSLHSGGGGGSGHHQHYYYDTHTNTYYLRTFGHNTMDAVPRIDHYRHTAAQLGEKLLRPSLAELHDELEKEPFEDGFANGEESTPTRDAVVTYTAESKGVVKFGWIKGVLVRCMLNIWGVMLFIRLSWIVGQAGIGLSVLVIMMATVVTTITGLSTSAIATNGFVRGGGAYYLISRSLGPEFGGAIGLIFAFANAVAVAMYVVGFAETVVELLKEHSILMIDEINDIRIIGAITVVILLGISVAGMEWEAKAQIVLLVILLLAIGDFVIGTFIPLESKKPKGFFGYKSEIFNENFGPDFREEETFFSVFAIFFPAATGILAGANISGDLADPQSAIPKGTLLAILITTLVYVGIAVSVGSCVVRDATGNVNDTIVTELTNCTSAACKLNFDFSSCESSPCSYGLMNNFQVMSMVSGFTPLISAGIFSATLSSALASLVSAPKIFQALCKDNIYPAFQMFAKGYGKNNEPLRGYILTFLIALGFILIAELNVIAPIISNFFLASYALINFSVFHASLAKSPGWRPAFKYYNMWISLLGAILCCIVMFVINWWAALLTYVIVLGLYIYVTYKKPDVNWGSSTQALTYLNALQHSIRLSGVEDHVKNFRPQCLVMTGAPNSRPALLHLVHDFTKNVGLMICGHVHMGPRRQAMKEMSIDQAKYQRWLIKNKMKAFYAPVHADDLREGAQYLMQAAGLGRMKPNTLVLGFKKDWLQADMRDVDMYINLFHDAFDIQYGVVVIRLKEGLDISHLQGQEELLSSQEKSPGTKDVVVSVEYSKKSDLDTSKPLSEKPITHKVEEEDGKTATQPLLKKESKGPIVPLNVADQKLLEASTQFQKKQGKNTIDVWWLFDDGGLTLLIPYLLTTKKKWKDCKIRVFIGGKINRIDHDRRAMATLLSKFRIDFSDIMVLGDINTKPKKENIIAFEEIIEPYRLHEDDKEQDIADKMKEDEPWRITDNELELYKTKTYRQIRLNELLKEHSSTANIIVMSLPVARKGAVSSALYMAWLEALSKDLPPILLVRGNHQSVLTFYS

[2] = biological target: T2, hNKCC1b (Homo sapiens, UniProt P55011); details: cited from earlier work
T2 sequence (P55011 1-1196 isoform P55011-3): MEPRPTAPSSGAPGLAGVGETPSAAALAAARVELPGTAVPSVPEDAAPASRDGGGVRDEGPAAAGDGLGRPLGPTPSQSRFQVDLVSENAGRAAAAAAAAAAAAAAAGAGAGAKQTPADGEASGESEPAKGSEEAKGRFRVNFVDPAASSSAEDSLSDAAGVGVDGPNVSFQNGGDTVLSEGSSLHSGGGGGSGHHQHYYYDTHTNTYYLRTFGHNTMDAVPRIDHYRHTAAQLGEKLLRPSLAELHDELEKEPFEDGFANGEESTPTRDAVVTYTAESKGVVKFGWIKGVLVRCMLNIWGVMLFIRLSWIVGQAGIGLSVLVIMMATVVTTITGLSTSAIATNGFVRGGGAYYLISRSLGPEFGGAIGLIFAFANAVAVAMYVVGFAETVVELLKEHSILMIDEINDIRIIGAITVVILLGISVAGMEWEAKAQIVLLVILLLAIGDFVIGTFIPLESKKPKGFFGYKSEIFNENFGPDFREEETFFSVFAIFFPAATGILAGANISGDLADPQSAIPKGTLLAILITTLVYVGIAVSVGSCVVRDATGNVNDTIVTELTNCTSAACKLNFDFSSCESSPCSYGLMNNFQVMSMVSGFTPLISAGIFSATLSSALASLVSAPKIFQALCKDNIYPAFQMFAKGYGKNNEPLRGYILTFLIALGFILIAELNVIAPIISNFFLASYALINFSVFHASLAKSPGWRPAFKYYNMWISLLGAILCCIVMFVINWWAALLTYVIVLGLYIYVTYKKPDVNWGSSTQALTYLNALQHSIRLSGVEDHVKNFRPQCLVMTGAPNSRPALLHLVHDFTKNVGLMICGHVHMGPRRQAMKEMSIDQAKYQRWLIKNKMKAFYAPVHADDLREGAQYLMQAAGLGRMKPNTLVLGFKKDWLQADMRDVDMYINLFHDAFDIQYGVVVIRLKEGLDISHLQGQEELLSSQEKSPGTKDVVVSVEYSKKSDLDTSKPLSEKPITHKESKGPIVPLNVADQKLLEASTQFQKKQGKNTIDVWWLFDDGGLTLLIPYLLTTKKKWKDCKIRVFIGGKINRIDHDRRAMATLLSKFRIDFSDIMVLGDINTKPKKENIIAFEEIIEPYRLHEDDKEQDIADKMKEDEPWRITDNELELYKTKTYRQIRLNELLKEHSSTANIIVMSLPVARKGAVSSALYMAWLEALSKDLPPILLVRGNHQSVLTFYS

[3] = biological target: T3, NKCC2 (Homo sapiens, UniProt Q13621); details: cited from earlier work
T3 sequence (Q13621 1-1099): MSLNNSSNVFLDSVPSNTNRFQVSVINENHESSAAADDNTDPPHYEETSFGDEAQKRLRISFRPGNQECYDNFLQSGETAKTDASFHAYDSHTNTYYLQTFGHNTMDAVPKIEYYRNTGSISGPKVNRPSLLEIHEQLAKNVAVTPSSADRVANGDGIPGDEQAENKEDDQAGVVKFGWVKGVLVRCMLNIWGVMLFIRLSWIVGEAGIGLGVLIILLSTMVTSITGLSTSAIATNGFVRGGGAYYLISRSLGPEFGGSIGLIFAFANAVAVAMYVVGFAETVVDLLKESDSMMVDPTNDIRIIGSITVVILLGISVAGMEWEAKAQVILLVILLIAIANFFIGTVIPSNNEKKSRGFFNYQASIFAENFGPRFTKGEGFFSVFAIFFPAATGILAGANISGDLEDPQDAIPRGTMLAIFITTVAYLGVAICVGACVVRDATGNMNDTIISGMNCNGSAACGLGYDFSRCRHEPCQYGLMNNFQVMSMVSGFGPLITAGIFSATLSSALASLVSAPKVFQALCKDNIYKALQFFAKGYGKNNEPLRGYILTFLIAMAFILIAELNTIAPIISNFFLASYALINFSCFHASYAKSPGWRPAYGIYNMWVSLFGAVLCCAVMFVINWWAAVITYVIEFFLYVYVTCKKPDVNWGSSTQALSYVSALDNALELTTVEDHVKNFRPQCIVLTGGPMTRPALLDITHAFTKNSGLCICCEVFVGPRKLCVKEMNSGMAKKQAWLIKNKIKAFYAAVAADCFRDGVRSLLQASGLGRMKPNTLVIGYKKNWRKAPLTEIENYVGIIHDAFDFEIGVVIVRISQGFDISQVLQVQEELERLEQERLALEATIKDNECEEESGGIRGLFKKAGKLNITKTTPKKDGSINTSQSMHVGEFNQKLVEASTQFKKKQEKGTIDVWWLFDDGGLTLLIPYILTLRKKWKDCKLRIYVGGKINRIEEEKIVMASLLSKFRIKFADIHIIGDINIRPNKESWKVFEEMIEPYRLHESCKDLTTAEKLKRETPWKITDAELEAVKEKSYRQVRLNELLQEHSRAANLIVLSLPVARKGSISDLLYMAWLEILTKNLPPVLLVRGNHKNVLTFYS

[4] = Cross-over trial dapagliflozin / bumetanide: weekly urinary excretion (Table 9); format: in vivo, healthy volunteers; details: for Ca^++ / Glucose / K^+ / Mg^++ / Na^+ / Urate: urine, Day 1-7
[5] = in vivo; cited from earlier work
[6] = in vivo; cited from earlier work; remark: listed apart in the source
[7] = during the remainder of the day after the dose, high salt intake; cited from earlier work
[8] = in vivo; cited from earlier work; remark: listed apart in the source
[9] = 1 mg; cited from earlier work
[10] = with spironolactone treatment, 12 patients, p<0.05, cited from earlier work
[11] = Americas group, at four months; cited from earlier work
[12] = cited from earlier work

## NS(=O)(=O)c1cc(-c2nnn[nH]2)c(NCc2cccs2)cc1Cl [Azosemide]
[1]
  IC50: 250 nM
[2]
  IC50: 210 nM
[3]
  IC50: 3.1 µM

## CCCCNc1cc(C(=O)O)cc(S(N)(=O)=O)c1Oc1ccccc1 [Bumetanide]
[4]; given after one week of dapaglifozin therapy
  greater natriuresis with bumetanide: 36%
[4]
  Ca^++: 667 ± 54 mg-wk^−1
  Glucose: 0.3 ± 0.06 g-wk^−1
  K^+: 454 ± 32 mmol-wk^−1
  Mg^++: 613 ± 48 mg-wk^−1
  Na^+: 669 ± 46 mmol-wk^−1
  Urate: 2249 ± 160 mg-wk^−1
[1]
  IC50: 950 nM
[2]
  IC50: 840 nM
[3]
  IC50: 0.25 µM

## Cc1ccc([C@@H]2O[C@H](CO)[C@@H](O)[C@H](O)[C@H]2O)cc1Cc1ccc(-c2ccc(F)cc2)s1 [Canagliflozin]
[5]
  Bioavailability: 65%
  T1/2: 10 h
  Tmax: 1 to 2 h

## CCOc1ccc(Cc2cc([C@@H]3O[C@H](CO)[C@@H](O)[C@H](O)[C@H]3O)ccc2Cl)cc1 [Dapagliflozin]
[4]; given after one week of bumetanide therapy
  greater natriuresis with dapagliflozin: 190%
[4]
  Ca^++: 597 ± 76 mg-wk^−1
  Glucose: 239 ± 20 g-wk^−1
  K^+: 415 ± 24 mmol-wk^−1
  Mg^++: 548 ± 37 mg-wk^−1
  Na^+: 625 ± 15 mmol-wk^−1
  Urate: 3382 ± 187 mg-wk^−1
[5]
  T1/2: 13 h
  Tmax: 1 to 1.5 h

## OC[C@H]1O[C@@H](c2ccc(Cl)c(Cc3ccc(O[C@H]4CCOC4)cc3)c2)[C@H](O)[C@@H](O)[C@@H]1O [Empagliflozin]
[5]
  Bioavailability: 95%
  T1/2: 13 h
  Tmax: 1.5 h

## COC(=O)[C@@H]1CC2=CC(=O)CC[C@]2(C)[C@@]23O[C@@H]2C[C@@]2(C)[C@@H](CC[C@@]24CCC(=O)O4)[C@H]13 [Eplerenone]
[6]
  half-life: 4 to 6 h

## CCOc1ccc(Cc2cc([C@]34OC[C@](CO)(O3)[C@@H](O)[C@H](O)[C@H]4O)ccc2Cl)cc1 [Ertugliflozin]
[5]
  Bioavailability: 87%
  T1/2: 12.5 h
  Tmax: 2 to 3 h

## C=C(CC)C(=O)c1ccc(OCC(=O)O)c(Cl)c1Cl [Ethacrynic acid]
[3]
  IC50: 5.1 µM

## NS(=O)(=O)c1cc(C(=O)O)c(NCc2ccco2)cc1Cl [Furosemide]
[3]
  IC50: 5.1 µM
[7]
  reduction of GFR: circa 23%

## OC[C@H]1O[C@@H](c2ccc(F)c(Cc3cc4ccccc4s3)c2)[C@H](O)[C@@H](O)[C@@H]1O [Ipragliflozin]
[5]
  Bioavailability: 92%
  T1/2: 15 h

## O=C1CC[C@@]2(O)[C@H]3Cc4ccc(O)c5c4[C@@]2(CCN3CC2CC2)[C@H]1O5 [Naltrexone, 17-(cyclopropylmethyl)-4,5-epoxy-3,14-dihydroxymorphinan-6-one]
[8]
  fraction metabolized: > 98%

## COc1cc2nc(N3CCN(C(=O)c4ccco4)CC3)nc(N)c2cc1OC [Prazosin]
[9]
  Oral bioavailability: 56.9%

## CCOc1ccc(Cc2cc([C@@H]3O[C@H](SC)[C@@H](O)[C@H](O)[C@H]3O)ccc2Cl)cc1 [Sotagliflozin]
[5]
  Bioavailability: 70%
  T1/2: 2.5 h
  Tmax: 1.9 h

## CC(=O)S[C@@H]1CC2=CC(=O)CC[C@]2(C)[C@H]2CC[C@@]3(C)[C@@H](CC[C@@]34CCC(=O)O4)[C@H]12 [Spironolactone]
[6]
  half-life: about 1.5 h
  time to steady state concentration: 7 to 10 days
[10]; vs. 13.6±10.8
  hypoxic index: 6.7±6.6 events/h
[10]; vs. 39.8±19.5
  AHI: 22.0±6.8 events/h
[11]
  patients discontinuing the study drug due to hyperkalemia: 25.2%

## CCc1ccc(Cc2ccc3c(c2)[C@]2(OC3)O[C@H](CO)[C@@H](O)[C@H](O)[C@H]2O)cc1 [Tofogliflozin]
[5]
  Bioavailability: 98%
  T1/2: 5.5 h
  Tmax: 1.1 h

## Cc1cccc(Nc2ccncc2S(=O)(=O)NC(=O)NC(C)C)c1 [Torsemide]
[1]
  IC50: 6200 nM
[2]
  IC50: 8200 nM
[3]
  IC50: 0.3 µM
[12]; in vivo
  Bioavailability: 80-100%
  duration of action: 3 to 5 h
[12]; unchanged in chronic renal failure
  plasma half-life: 3 to 5 h

## C[C@]12CCC(=O)C=C1C=C[C@@H]1[C@@H]2CC[C@@]2(C)[C@H]1CC[C@@]21CCC(=O)O1 [canrenone]
[6]
  half-life: more than 15 hours
